Reference: patent US20090054392A1, “NAPHTHYLPYRIMIDINE, NAPHTHYLPYRAZINE AND NAPHTHYLPYRIDAZINE ANALOGS AND THEIR USE AS AGONISTS OF THE WNT-BETA-CATENIN CELLULAR MESSAGING SYSTEM” (Wyeth, priority 2007, published 2009)
Like-named read-outs stand apart in the source and are kept apart here.

Tested on: Dkk1-LRP5-TCF-Luciferase
Assay: Functional Dkk1-LRP5-TCF-Luciferase Assay in U2OS Cells
Settings: for fold induction at 2 µM / EC50 / fold induction at 20 µM: Homo sapiens, U2OS; for A = MAX FOLD Induction/DMSO CONTROL: maximum fold induction over DMSO control
[1] = read-out: B = TCF ACTIVITY/DMSO CONTROL Fold induction @ 2.0 uM, 2.0 uM compound
[2] = read-out: C = TCF ACTIVITY/DMSO CONTROL Fold induction @ 20.0 uM, 20.0 uM compound

Compound | fold induction at 2 µM [1] | EC50 | fold induction at 20 µM [2] | A = MAX FOLD Induction/DMSO CONTROL | fold induction at 2 µM (read-out: B = TCF ACTIVITY/DMSO CONTROL Fold induction @ 2.0 uM) | fold induction at 20 µM (read-out: C = TCF ACTIVITY/DMSO CONTROL Fold induction @ 20.0 uM)
c1ccc2cc(-c3ccnc(N4CC[C@@H](N5CCN6CCCCC6C5)C4)n3)ccc2c1 (stereo partly drawn) [2-{(3R)-1-[4-(2-naphthyl)pyrimidin-2-yl]pyrrolidin-3-yl}octahydro-2H-pyrido[1,2-a]pyrazine] | 1.3 | – | – | – | – | –
CS(=O)(=O)N1CCC(Nc2nccc(-c3ccc4ccccc4c3)n2)CC1 [N-[1-(methylsulfonyl)piperidin-4-yl]-4-(2-naphthyl)pyrimidin-2-amine] | 2.24 | 0.06 µM | 1.54 | 1.730 fold | – | –
C=Cc1ccc2cc(-c3ccnc(N4CCC(CN)CC4)n3)ccc2c1 [1-{1-[4-(6-vinyl-2-naphthyl)pyrimidin-2-yl]piperidin-4-yl}methanamine] | 1.21 | – | – | – | – | –
COC(=O)C(N)C1CCN(c2nccc(-c3ccc4ccccc4c3)n2)CC1 (stereo not shown) [methyl amino{1-[4-(2-naphthyl)pyrimidin-2-yl]piperidin-4-yl}acetate] | – | 3.3 µM | 0.03 | 2.360 fold | – | –
CC(=O)N[C@H]1CCN(c2nccc(-c3ccc4ccccc4c3)n2)C1 [N-{(3S)-1-[4-(2-naphthyl)pyrimidin-2-yl]pyrrolidin-3-yl}acetamide] | 1.02 | 6.88 µM | 1.5 | 4.375 fold | – | –
COC(=O)C1CCN(c2nccc(-c3ccc4ccccc4c3)n2)CC1 [methyl 1-[4-(2-naphthyl)pyrimidin-2-yl]piperidine-4-carboxylate] | – | – | 1.39 | – | – | –
O=C(N1CCCC1)N1CCC(CNc2nccc(-c3ccc4ccccc4c3)n2)CC1 [4-(2-naphthyl)-N-{[1-(pyrrolidin-1-ylcarbonyl)piperidin-4-yl]methyl}pyrimidin-2-amine] | 1.08 | – | 0.907 | – | – | –
NCC1CCN(c2nccc(-c3ccc4cc(O)ccc4c3)n2)CC1 [6-{2-[4-(aminomethyl)piperidin-1-yl]pyrimidin-4-yl}-2-naphthol] | 1.88 | – | 0.015 | – | – | –
Cc1ccc(S(=O)(=O)N2CCCN(c3nccc(-c4ccc5ccccc5c4)n3)CC2)cc1 [1-[(4-methylphenyl)sulfonyl]-4-[4-(2-naphthyl)pyrimidin-2-yl]-1,4-diazepane] | 1.76 | – | – | – | – | –
OC[C@@H]1CCCN(c2nccc(-c3ccc4ccccc4c3)n2)C1 [{(3R)-1-[4-(2-naphthyl)pyrimidin-2-yl]piperidin-3-yl}methanol] | 1.98 | – | 1.08 | 1.800 fold | – | –
O=C1CCCN1CC1CCN(c2nccc(-c3ccc4ccccc4c3)n2)CC1 [1-({1-[4-(2-naphthyl)pyrimidin-2-yl]piperidin-4-yl}methyl)pyrrolidin-2-one] | 1.33 | – | 0.81 | – | – | –
CC(=O)N1CC(CNc2nccc(-c3ccc4ccccc4c3)n2)C1 [N-[(1-acetylazetidin-3-yl)methyl]-4-(2-naphthyl)pyrimidin-2-amine] | 1.8 | – | – | – | – | –
c1ccc2cc(-c3ccnc(N4CCC5(CC4)OCCO5)n3)ccc2c1 [8-[4-(2-naphthyl)pyrimidin-2-yl]-1,4-dioxa-8-azaspiro[4.5]decane] | – | – | – | – | 1.5 | 1.74
NCC1(CN)C[C@@H]2C[C@H]1CN2c1nccc(-c2ccc3ccccc3c2)n1 [{(1S,4R)-2-[4-(2-naphthyl)pyrimidin-2-yl]-2-azabicyclo[2.2.1]heptane-5,5-diyl}dimethanamine] | 1.2 | – | – | – | – | –
CN(C[C@H]1CCN(c2nccc(-c3ccc4ccccc4c3)n2)C1)C1CCCCC1 [N-methyl-N-({(3R)-1-[4-(2-naphthyl)pyrimidin-2-yl]pyrrolidin-3-yl}methyl)cyclohexanamine] | 1.27 | – | 1.6 | – | – | –
COc1ccc(CNc2nccc(-c3ccc4ccccc4c3)n2)cc1 [N-(4-methoxybenzyl)-4-(2-naphthyl)pyrimidin-2-amine] | – | – | 1.12 | – | – | –
CN(c1nccc(-c2ccc3ccccc3c2)n1)C1CCN(C=O)CC1 [4-{methyl[4-(2-naphthyl)pyrimidin-2-yl]amino}piperidine-1-carbaldehyde] | 1.73 | – | 1.29 | – | – | –
O=C(c1ccccc1)N1CC[C@H](Nc2nccc(-c3ccc4ccccc4c3)n2)C1 [N-[(3S)-1-benzoylpyrrolidin-3-yl]-4-(2-naphthyl)pyrimidin-2-amine] | 1.23 | – | – | – | – | –
CN(C)S(=O)(=O)N[C@@H]1CCN(c2nccc(-c3ccc4ccccc4c3)n2)C1 [N,N-dimethyl-N′-{(3R)-1-[4-(2-naphthyl)pyrimidin-2-yl]pyrrolidin-3-yl}sulfamide] | 1.42 | – | 0.82 | – | – | –

Compound | fold induction at 2 µM [1] | EC50 | fold induction at 20 µM [2] | A = MAX FOLD Induction/DMSO CONTROL | fold induction at 2 µM (read-out: B = TCF ACTIVITY/DMSO CONTROL Fold induction @ 2.0 uM) | fold induction at 20 µM (read-out: C = TCF ACTIVITY/DMSO CONTROL Fold induction @ 20.0 uM)
NC[C@H]1C[C@@H]2C[C@H]1CN2c1nccc(-c2ccc3ccccc3c2)n1 [1-{(1R,4R,5S)-2-[4-(2-naphthyl)pyrimidin-2-yl]-2-azabicyclo[2.2.1]hept-5-yl}methanamine] | 1.8 | – | – | – | – | –
COC(=O)[C@H](NC(=O)OC(C)(C)C)C1CCN(c2nccc(-c3ccc4ccccc4c3)n2)CC1 [methyl (2R)-[(tert-butoxycarbonyl)amino]{1-[4-(2-naphthyl)pyrimidin-2-yl]piperidin-4-yl}acetate] | – | – | 0.77 | – | – | –
c1ccc2cc(-c3ccnc(NCCc4ccncc4)n3)ccc2c1 [4-(2-naphthyl)-N-(2-pyridin-4-ylethyl)pyrimidin-2-amine] | 1.96 | 0.98 µM | 0.375 | 2.765 fold | – | –
O=[N+]([O-])CC1(O)CCN(c2nccc(-c3ccc4ccccc4c3)n2)CC1 [1-[4-(2-naphthyl)pyrimidin-2-yl]-4-(nitromethyl)piperidin-4-ol] | 1.19 | – | 1.49 | – | – | –
CN(C)[C@@H]1CCN(c2nccc(-c3ccc4ccccc4c3)n2)C1 [(3R)—N,N-dimethyl-1-[4-(2-naphthyl)pyrimidin-2-yl]pyrrolidin-3-amine] | 2.88 | 3.56 µM | 0.065 | 5.193 fold | – | –
CCNC(=O)N1CCC(Nc2nccc(-c3ccc4ccccc4c3)n2)CC1 [N-ethyl-4-{[4-(2-naphthyl)pyrimidin-2-yl]amino}piperidine-1-carboxamide] | 1.14 | 18.2 µM | 1.6 | 2.280 fold | – | –
CN(C)S(=O)(=O)N[C@H]1CC[C@H](Nc2nccc(-c3ccc4ccccc4c3)n2)CC1 [N,N-dimethyl-N′-(trans-4-{[4-(2-naphthyl)pyrimidin-2-yl]amino}cyclohexyl)sulfamide] | 1.65 | – | 1.74 | – | – | –
CN(CCN(C)S(=O)(=O)c1ccccc1)[C@@H]1CCN(c2nccc(-c3ccc4ccccc4c3)n2)C1 [N-methyl-N-[2-(methyl{(3R)-1-[4-(2-naphthyl)pyrimidin-2-yl]pyrrolidin-3-yl}amino)ethyl]benzenesulfonamide] | – | – | 1.4 | – | – | –
OC[C@@H]1CCCN1c1nccc(-c2ccc3ccccc3c2)n1 [{(2S)-1-[4-(2-naphthyl)pyrimidin-2-yl]pyrrolidin-2-yl}methanol] | 2.05 | – | 2.02 | – | – | –
CN(c1nccc(-c2ccc3ccccc3c2)n1)C1CCN(c2ncccn2)CC1 [N-methyl-4-(2-naphthyl)-N-(1-pyrimidin-2-ylpiperidin-4-yl)pyrimidin-2-amine] | 1.7 | – | – | – | – | –
CN(C)C(=O)NCC1CCN(c2nccc(-c3ccc4ccccc4c3)n2)CC1 [N,N-dimethyl-N′-({1-[4-(2-naphthyl)pyrimidin-2-yl]piperidin-4-yl}methyl)urea] | 1.12 | 4.03 µM | 2.36 | 1.690 fold | – | –
COC(=O)N[C@@H]1CCN(c2nccc(-c3ccc4ccccc4c3)n2)C1 [methyl {(3R)-1-[4-(2-naphthyl)pyrimidin-2-yl]pyrrolidin-3-yl}carbamate] | 2.2 | – | 0.43 | 0.890 fold | – | –
NC(=O)N1CCC(Nc2nccc(-c3ccc4ccccc4c3)n2)CC1 [4-{[4-(2-naphthyl)pyrimidin-2-yl]amino}piperidine-1-carboxamide] | 1.31 | 5.28 µM | 3.17 | 3.552 fold | – | –
CC(C)C(=O)N(C)CCN(C)[C@@H]1CCN(c2nccc(-c3ccc4ccccc4c3)n2)C1 [N,2-dimethyl-N-[2-(methyl{(3R)-1-[4-(2-naphthyl)pyrimidin-2-yl]pyrrolidin-3-yl}amino)ethyl]propanamide] | – | – | 1.5 | – | – | –
NCC1(O)CCN(c2nccc(-c3ccc4ccccc4c3)n2)CC1 [4-(aminomethyl)-1-[4-(2-naphthyl)pyrimidin-2-yl]piperidin-4-ol] | 1.6 | 1.18 µM | – | 2.950 fold | – | –
CN(CCN(C)[C@@H]1CCN(c2nccc(-c3ccc4ccccc4c3)n2)C1)C(=O)C(F)(F)F [2,2,2-trifluoro-N-methyl-N-[2-(methyl{(3R)-1-[4-(2-naphthyl)pyrimidin-2-yl]pyrrolidin-3-yl}amino)ethyl]acetamide] | 1.5 | – | – | – | – | –
CS(=O)(=O)NCC1CCN(c2nccc(-c3ccc4ccccc4c3)n2)C1 (stereo not shown) [N-({1-[4-(2-naphthyl)pyrimidin-2-yl]pyrrolidin-3-yl}methyl)methanesulfonamide] | 0.88 | – | 1.63 | – | – | –
c1ccc2cc(-c3ccnc(NCC4CCNCC4)n3)ccc2c1 [4-(2-naphthyl)-N-(piperidin-4-ylmethyl)pyrimidin-2-amine] | 1.33 | – | 1.36 | 6.120 fold | – | –
CNCC1CCN(c2nccc(-c3ccc4ccccc4c3)n2)CC1 [N-methyl-1-{1-[4-(2-naphthyl)pyrimidin-2-yl]piperidin-4-yl}methanamine] | 1.49 | – | 0.01 | 2.840 fold | – | –
